The values that follow come from patent publication US5453518A, “Flavone derivatives” (Recordati S.A., Chemical and Pharmaceutical Company, priority 1992, dated 1995).

Where a name gives a salt, the structure may show the parent alone. Read-outs that look alike come from different tables or passages of the source.

Data set [1] relates to rat bladder (K^+ -induced contractions). Kind of data set: Inhibition of K^+ -induced rat bladder contractions. Also on record: species or system rat (male Sprague Dawley). Particulars: 0.5 h, KCl 80 mM, 30 min after drug, isolated rat bladder. The method, then: Female Albino Swiss mice [Crl: CD-1 (ICR) BR] with a body weight of 20-30 g and male Sprague Dawley rats [Crl: CD° BR] with a body weight of 200-300 g, from the Charles River Farm, Italy, were used for the trials. The animals were housed with free access to food and water and kept on a forced light-darkness cycle at 22°-24° C. until the day of the trials. Male rats were killed by a blow on their heads and their lower abdomens were opened along the midlines. Their urinary bladders were removed by a transverse dissection above the trigone and cut into two fragments (20-30 mm long, 1-2 mm wide). Each fragment was suspended in an isolated organ bath containing 10 ml of a normal Tyrode solution (composition in mM: NaCl 137, KCl 2.68, MgCl2 1.11, CaCl2 1.8, NaH2 PO4 0.41, NaHCO3 11.9, glucose 5.55) and connected, under a steady 1 g load, to an isometric transducer (DY-1, Basile). The solution was gassed with a mixture of 95% O2 and 5% CO2 and heated at 37° C. After a 60 minute equilibration the tension responses to a single KCl dose (Bath concentration=80 mM) inducing phasic and tonic contractions were measured under isometric conditions at 30 minute intervals. After recording one or more reproducible responses, a solution of the test drug was added to the bath (final concentration from 10^-4 to 10^-9 M) and 30 minutes later a new contraction was induced. The experimental groups were made up of at least 2 preparations from different animals for each drug concentration tested. The IC50 values of the inhibition of the agonist-induced contractions were evaluated by linear regression analysis.

The conditions of data set [2]: in words, background; cited from earlier work.
For data set [3] the following is noted: in words, background; cited from earlier work. This is another data set of the same source.
A short description of data set [4]: Acute toxicity in mice (LD50). The format is in vivo. Particulars: mouse, in vivo, mice, death rate 7 days after administration. The method, then: (§1) Female Albino Swiss mice [Crl: CD-1 (ICR) BR] with a body weight of 20-30 g and male Sprague Dawley rats [Crl: CD° BR] with a body weight of 200-300 g, from the Charles River Farm, Italy, were used for the trials. The animals were housed with free access to food and water and kept on a forced light-darkness cycle at 22°-24° C. until the day of the trials.
(§2) The acute toxicity was evaluated in female Albino Swiss mice after intraperitoneal or oral administrations. Four logarithmic scaled doses of the compounds were dissolved or suspended in 0.5% aqueous Methocel and administered at a volume of 10 ml/kg to groups of 4 mice/dose. The death rate was recorded 7 days after the administration.
(§3) The LD50 values and the relevant confidence limits were calculated according to the method of Weil (Biometrics, 8, 249, 1952).

For the next data set, the system named is Female Albino Swiss mice. Kind of data set: Acute toxicity in mice (LD50). Format: in vivo. Particulars: in words; LD50/IC50 compared with Flavoxate. The method, then:
as §1, §2, §3

[5] abbreviates: phasic contraction, read-out: IC50, inhibition of K^+ -induced rat bladder contractions, Phasic.
[6] abbreviates: tonic contraction, read-out: IC50, inhibition of K^+ -induced rat bladder contractions, Tonic.

Usually IC50 stands for the point on the concentration scale where inhibition reaches its midpoint. In the case of `Cc1c(-c2ccccc2)oc2c(C(=O)OCCN3CCCCC3)cccc2c1=O` [Flavoxate, 8-(2-(N-piperidino)ethoxycarbonyl)-3-methyl-4-oxo-2-phenyl-4H-1-benzopyran, reference compound], the IC50 in data set [1] (setting [5]) and in data set [1] (setting [6]) was 13 µM throughout. Moreover, the anticholinergic effects entry in data set [2] is “practical absence of anticholinergic effects”. In data set [3], the “stability in physiological fluids” value was “low stability in physiological fluids”.

The LD50 is the dose at which mortality reaches 50%. Turning to `COc1ccc(C(C#N)(CCCN(C)CCCNC(=O)c2cccc3c(=O)c(C)c(-c4ccccc4)oc23)C(C)C)cc1OC` (stereo not drawn) [Example 11, 8-{3-[4-Cyano-4-(3,4-dimethoxyphenyl)-N,5-dimethylhexylamino]propylcarbamoyl}-3-methyl-4-oxo-2-phenyl-4H-1-benzopyran hydrochloride hemihydrate], the IC50 in data set [1] (setting [5]) turned out to be 0.6 µM; in data set [1] (setting [6]), 0.5 µM. The LD50 at 168 h in data set [4] (ip, i.p., read-out: Mice LD50 i.p.) stood at 224 mg/kg; in data set [4] (po, p.o., read-out: Mice LD50 p.o.), 400 mg/kg. The “relative therapeutic index (LD50/IC50) versus Flavoxate” value in the data set on Female Albino Swiss mice is “considerably safer than Flavoxate”.
